From patent US10125168B2, “Synthetic peptide for adjusting balance between presence of type 1 TNF receptor and type 2 TNF receptor and use thereof” (TOAGOSEI CO., LTD., priority 2012, dated 2018)

Key:
[1] = test system: TNF-R1; assay: Immunofluorescence / flow cytometry of TNF-R1 presence in human SK-N-SH cells supplied with peptide; type: cell-based; conditions: human cell line SK-N-SH, retinoic acid induction, peptide 5 μM, two days; fluorescence intensity relative to control group = 1 (FIG. 2)
Protocol: The activities of the respective peptides synthesized in Example 1 above were tested with cultured cells of a human neuroblastoma cell line (SK-N-SH). The control group was supplied with no peptides. The test details are described below.
Firstly, each peptide synthesized in Example 1 above was dissolved in DMSO to prepare a stock solution having a peptide concentration of 4 mM.
The SK-N-SH cell line was then seeded in a 4 mL fraction in a culture dish of 6 cm diameter at a density of 1.5×10^5 cells/mL and incubated overnight in a general DMEM culture medium (with 10% FBS (a Hyclone product, KSD), 2 mM L-glutamine, 50 unit/mL penicillin, and 50 μg/mL streptomycin) at 37° C. in a CO2 incubator at 5% CO2. Due to a low cell density, incubation was carried on for one more days.
After incubated over two nights, the culture medium was replaced with a fresh DMEM culture medium (with 2% FBS, 20 μM retinoic acid, 2 mM L-glutamine, 50 unit/mL penicillin, and 50 μg/mL streptomycin). Incubation was carried on for five days under the same conditions to effect retinoic acid induction.
Subsequently, the culture medium was replaced with a DMEM culture medium containing a peptide (TNF-R2 upregulating peptide or TNF-R2 downregulating peptide) in an amount equivalent to 5 μM, in addition to 2% FBS, 20 μM retinoic acid, 2 mM L-glutamine, 50 unit/mL penicillin and 50 μg/mL streptomycin (also containing 5 μL of DMSO at this point). Incubation was carried on under the same conditions for two days.
The control group (group supplied with no peptide) was incubated for two days in a DMEM culture medium (with 2% FBS, 20 μM retinoic acid, 20 μM retinoic acid, 2 mM L-glutamine, 50 unit/mL penicillin, and 50 μg/mL streptomycin) supplied only with the aforementioned amount of DMSO, without any added peptide.
(§1) After completion of the incubation, cultured cells in each test group were collected and divided into certain test tubes in fractions having the same number of cells. By the immunofluorescence technique described below, the change in the balance between the presence of TNF-R1 and TNF-R2 was then assessed in each test group (group supplied with TNF-R2 upregulating peptide, group supplied with TNF-R2 downregulating peptide).
More specifically, in each test group, for the TNF-R1 measurement, an anti-TNF-R1 mouse polyclonal antibody (a Santa Cruz Biotechnology Inc. product, SC-52739) was added to the respective test tubes to a final concentration of 2×10^−3 mg/mL and incubation was carried out under ice-cold conditions for a prescribed time period. As a secondary antibody, a goat anti-mouse IgG antibody (an Invitrogen product, A10029) labeled with a fluorescent dye (Alexa® 488) was added to the test tubes to a final concentration of 4×10^−3 mg/mL and incubation was carried out under ice-cold conditions for a prescribed time period.
(§2) In the same manner as Example 2 above, the fluorescence intensities of cells were measured with a flow cytometer. For both TNF-R1 and TNF-R2, the fluorescence intensities are shown as relative values with the fluorescence intensities of TNF-R1 and TNF-R2 in the control group (group supplied with no peptide) being 1, respectively.

[2] = test system: TNF-R1; assay: Immunofluorescence / flow cytometry of TNF-R1 presence in mouse Neuro 2a cells supplied with peptide; type: cell-based; conditions: mouse cell line Neuro 2a, retinoic acid induction, peptide 5 μM, two days; fluorescence intensity relative to control group = 1 (FIG. 1)
Protocol: The activities of the peptides of Sample 1 and Sample 6 synthesized in Example 1 above were tested with cultured cells of a mouse […], neuroblastoma cell line (Neuro 2a). The control group was supplied with no peptides. The test details are described below.
Firstly, each peptide synthesized in Example 1 above was dissolved in PBS (phosphate buffered saline) to prepare a stock solution having a peptide concentration of 1 mM (with a small amount of dimethyl sulfoxide (DMSO)). […]
as §1, with “peptide). […]” for “peptide).”
as §2, with “The” for “In the same manner as Example 2 above, the”, “cytometer (a Millipore system product, Guava® easyCyte 8HT).” for “cytometer.”

Sequence | presence of TNF-R1 [1] | presence of TNF-R1 [2]
MGLSTVPGLLLPLVLRALLVD (listed as Sus scrofa) [Sample 5, TNF-R2 upregulating peptide; pig TNF-R1 signal peptide motif, linear, 21 amino acid residues] | no significant change | –
MAPVAVWAALAVGLELWAAAHA (listed as Homo sapiens) [Sample 6, TNF-R2 downregulating peptide; human TNF-R2 signal peptide motif, linear, 22 amino acid residues] | no significant change | no significant change
MGLSTVPDLLLPLVLLELLVG (listed as Homo sapiens) [Sample 1, TNF-R2 upregulating peptide; human TNF-R1 signal peptide motif, linear, 21 amino acid residues] | no significant change | no significant change
MAPAALWVALVFELQLWATGHT (listed as Mus musculus) [Sample 7, TNF-R2 downregulating peptide; mouse TNF-R2 signal peptide motif, linear, 22 amino acid residues] | no significant change | –
MGLPTVPGLLLSLVLLALLMG (listed as Mus musculus) [Sample 2, TNF-R2 upregulating peptide; mouse TNF-R1 signal peptide motif, linear, 21 amino acid residues] | no significant change | –
